According to PMC4125495 (DNA repair, 2014):
Read-outs that look alike come from different tables or passages of the source.

What was measured:
PARP1 = PARP1 (Gallus gallus, UniProt P26446); test: PAR ELISA assay; assay type: cell-based
BRCA2tr/- cells [1] = test: Cell viability assay; assay type: cell-based, chicken; details: single agent, compared with PARP1-/- and hTDP1 cells
DT40 hTDP1 cells = details: no CPT vs CPT (Table 1)
hTDP1 cells = test: Secondary screening cell viability assay; details: 15 and 20 nM CPT
TDP1-/- cells = test: Secondary screening cell viability assay; details: 5 and 10 nM CPT
BRCA2tr/- cells [2] = details: cited from earlier work
[3] = read-out: IC50 Poly (ADP-ribose) lation, PAR ELISA

Sequence of PARP1 (P26446 whole entry): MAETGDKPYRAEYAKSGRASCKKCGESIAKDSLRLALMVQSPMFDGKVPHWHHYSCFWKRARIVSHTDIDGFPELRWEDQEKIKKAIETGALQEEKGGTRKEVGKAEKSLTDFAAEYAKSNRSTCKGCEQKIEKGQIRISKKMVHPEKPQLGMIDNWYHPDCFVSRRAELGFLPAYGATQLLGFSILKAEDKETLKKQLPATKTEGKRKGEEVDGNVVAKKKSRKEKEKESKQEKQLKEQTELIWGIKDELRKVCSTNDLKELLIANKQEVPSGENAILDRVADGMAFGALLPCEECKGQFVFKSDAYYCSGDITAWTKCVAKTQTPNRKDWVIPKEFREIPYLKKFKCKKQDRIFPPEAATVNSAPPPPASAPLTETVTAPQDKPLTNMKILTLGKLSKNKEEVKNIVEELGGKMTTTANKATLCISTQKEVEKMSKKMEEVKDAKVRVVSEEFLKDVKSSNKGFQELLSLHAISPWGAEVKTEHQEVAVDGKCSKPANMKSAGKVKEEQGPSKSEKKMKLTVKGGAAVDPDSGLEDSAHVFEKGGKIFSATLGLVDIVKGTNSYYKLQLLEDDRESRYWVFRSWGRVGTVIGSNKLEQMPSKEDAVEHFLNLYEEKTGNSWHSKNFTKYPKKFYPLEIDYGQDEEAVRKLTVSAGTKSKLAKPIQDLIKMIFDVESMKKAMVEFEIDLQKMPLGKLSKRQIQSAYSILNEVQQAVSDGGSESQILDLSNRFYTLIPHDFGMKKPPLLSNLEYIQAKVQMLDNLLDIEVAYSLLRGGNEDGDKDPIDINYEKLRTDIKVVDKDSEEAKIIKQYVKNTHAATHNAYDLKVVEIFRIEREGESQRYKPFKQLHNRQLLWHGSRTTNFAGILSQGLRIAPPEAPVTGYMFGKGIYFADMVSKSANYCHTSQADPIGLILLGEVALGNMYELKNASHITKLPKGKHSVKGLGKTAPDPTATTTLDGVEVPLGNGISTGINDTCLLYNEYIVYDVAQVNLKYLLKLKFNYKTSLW

SMILES | IC50 (PARP1; [3]) [µM] | cytotoxic effect in BRCA2tr/- cells (BRCA2tr/- cells [1]) | fold potentiation of cytotoxicity in the presence of CPT (DT40 hTDP1 cells) [fold] | potentiating (synergistic) effect with CPT in hTDP1 cells (hTDP1 cells) | potentiating (synergistic) effect with CPT in TDP1-/- cells (TDP1-/- cells) | IC50 (PARP1) [µM] | cytotoxic effect in BRCA2tr/- cells (BRCA2tr/- cells [2])
CC(=O)Nc1ccc2c(c1)[nH]c(=O)c1ccccc12 [Cpd1] | < 0.02 | selectively cytotoxic | 166 | greatest potentiating effect | without showing any apparent potentiating effect | – | –
O=C(Nc1cccc2c(=O)[nH][nH]c(=O)c12)c1ccc([N+](=O)[O-])cc1 [Cpd5] | 4.6 | – | – | – | – | – | –
C[C@]1(c2nc3c(C(N)=O)cccc3[nH]2)CCCN1 [Veliparib, reference compound] | – | – | 466 | – | lack of synergistic effect | < 0.02 | selectively cytotoxic
